According to BindingDB's records for doi:10.1172/JCI119225 (Cedars-Sinai Research Institute, 1997):
Bridge positions count the residues as written; N and C are the ends. Square brackets hold non-standard residues; d marks the D form. Peptide text beside a SMILES is read from it. d2Nal = N[C@H](Cc1ccc2ccccc2c1)C(=O)O

Legend:
[1] = molecular target: Somatostatin receptor type 5 (Homo sapiens, UniProt P35346)
[2] = molecular target: Somatostatin receptor type 3 (Homo sapiens, UniProt P32745)
[3] = molecular target: Somatostatin receptor type 2 (Homo sapiens, UniProt P30874)
Sequence of Somatostatin receptor type 2 (P30874 whole entry): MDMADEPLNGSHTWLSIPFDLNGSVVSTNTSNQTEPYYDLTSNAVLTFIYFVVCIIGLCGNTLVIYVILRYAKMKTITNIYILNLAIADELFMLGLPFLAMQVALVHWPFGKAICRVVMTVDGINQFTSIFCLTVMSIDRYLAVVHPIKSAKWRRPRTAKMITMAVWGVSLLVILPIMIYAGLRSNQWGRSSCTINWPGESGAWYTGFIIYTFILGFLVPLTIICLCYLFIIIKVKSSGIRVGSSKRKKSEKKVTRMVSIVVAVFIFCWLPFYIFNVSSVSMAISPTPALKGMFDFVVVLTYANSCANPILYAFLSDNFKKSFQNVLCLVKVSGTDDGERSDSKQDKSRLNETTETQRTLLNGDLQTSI

[4] = molecular target: Somatostatin receptor type 4 (Homo sapiens, UniProt P31391)
Sequence of Somatostatin receptor type 4 (P31391 whole entry): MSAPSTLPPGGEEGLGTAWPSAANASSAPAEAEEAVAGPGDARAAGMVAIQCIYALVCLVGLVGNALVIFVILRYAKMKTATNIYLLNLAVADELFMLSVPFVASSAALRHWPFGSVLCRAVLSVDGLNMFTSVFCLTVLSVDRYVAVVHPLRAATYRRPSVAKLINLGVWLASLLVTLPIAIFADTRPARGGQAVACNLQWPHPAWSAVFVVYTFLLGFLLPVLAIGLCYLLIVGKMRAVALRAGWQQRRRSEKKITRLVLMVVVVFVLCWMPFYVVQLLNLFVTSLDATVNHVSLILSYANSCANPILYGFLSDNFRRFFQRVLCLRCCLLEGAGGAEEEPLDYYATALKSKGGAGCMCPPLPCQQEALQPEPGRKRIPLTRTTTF

Sequence of Somatostatin receptor type 3 (P32745 whole entry): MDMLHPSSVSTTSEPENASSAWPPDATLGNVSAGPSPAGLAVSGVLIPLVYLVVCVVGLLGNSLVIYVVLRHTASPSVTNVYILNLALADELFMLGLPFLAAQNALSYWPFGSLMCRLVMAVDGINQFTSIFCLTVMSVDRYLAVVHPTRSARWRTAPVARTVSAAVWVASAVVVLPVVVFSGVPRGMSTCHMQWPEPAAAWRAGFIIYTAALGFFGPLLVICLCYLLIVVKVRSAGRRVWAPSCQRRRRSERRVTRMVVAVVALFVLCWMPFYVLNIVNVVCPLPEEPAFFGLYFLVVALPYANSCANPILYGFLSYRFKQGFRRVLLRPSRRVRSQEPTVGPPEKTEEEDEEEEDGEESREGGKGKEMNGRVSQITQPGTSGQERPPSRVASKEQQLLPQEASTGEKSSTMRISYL
Sequence of Somatostatin receptor type 5 (P35346 whole entry): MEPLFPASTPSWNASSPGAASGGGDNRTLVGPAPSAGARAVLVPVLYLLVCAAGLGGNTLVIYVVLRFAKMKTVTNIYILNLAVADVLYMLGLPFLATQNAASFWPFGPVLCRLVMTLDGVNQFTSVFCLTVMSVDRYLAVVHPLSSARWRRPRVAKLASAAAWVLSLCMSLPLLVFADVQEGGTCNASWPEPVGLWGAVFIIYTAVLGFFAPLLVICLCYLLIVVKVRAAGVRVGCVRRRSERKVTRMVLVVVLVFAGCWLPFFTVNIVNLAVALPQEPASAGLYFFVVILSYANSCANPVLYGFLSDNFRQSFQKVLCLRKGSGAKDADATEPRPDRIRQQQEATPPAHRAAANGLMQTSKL

Row | Structure (SMILES) | IC50 [1] [nM] | IC50 [2] [nM] | IC50 [3] [nM] | IC50 [4] [nM]
1 | C[C@@H](O)[C@@H]1NC(=O)[C@H](CCCCN)NC(=O)[C@@H](Cc2c[nH]c3ccccc23)NC(=O)[C@H](Cc2ccccc2)NC(=O)[C@H](Cc2ccccc2)NC(=O)[C@H](N)CSSC[C@H](C(N)=O)NC(=O)[C@H](Cc2ccccc2)NC1=O (H-[dC]FF[dW]KTF[dC]-NH2; disulfide 1-8) | 0.37 | 61.6 | 15.1 | 
2 | CC(C)[C@@H]1NC(=O)[C@H](CCCCN)NC(=O)[C@@H](Cc2c[nH]c3ccccc23)NC(=O)[C@H](Cc2ccc(O)cc2)NC(=O)[C@@H](NC(=O)[C@H](N)Cc2ccc3ccccc3c2)CSSC[C@@H](C(=O)N[C@H](C(N)=O)[C@@H](C)O)NC1=O [3-(2-Naphtyl)-D-Ala-L-Cys(1)-L-Tyr-D-Trp-L-Lys-L-Val-L-Cys(1)-L-Thr-NH2] |  | 107 |  | 
3 | CC[C@@H]1NC(=O)[C@H](CCCCN)NC(=O)[C@@H](Cc2c[nH]c3ccccc23)NC(=O)[C@H](Cc2ccc(O)cc2)NC(=O)[C@@H](NC(=O)[C@@H](Cc2ccccc2)NC(=O)CN2CCN(CCO)CC2)CSSC[C@@H](C(=O)N[C@H](C(N)=O)[C@@H](C)O)NC1=O [BIM-23190] |  |  |  | 1000
4 | C[C@@H](O)[C@H](NC(=O)[C@H](Cc1ccccc1)NC(=O)[C@@H](NC(=O)[C@H](CCCCN)NC(=O)[C@@H](Cc1c[nH]c2ccccc12)NC(=O)[C@H](Cc1ccccc1)NC(=O)[C@H](Cc1ccccc1)NC(=O)[C@H](N)Cc1ccccc1)[C@@H](C)O)C(N)=O [CAS_133073-82-2] (H-[dF]FF[dW]KTFT-NH2) |  |  |  | 132
5 | CC(C)[C@H](NC(=O)[C@H](CCCCN)NC(=O)[C@@H](Cc1c[nH]c2ccccc12)NC(=O)[C@H](Cc1ccc(O)cc1)NC(=O)[C@H](Cc1ccccc1)NC(=O)[C@H](N)Cc1ccccc1)C(=O)N[C@@H](Cc1ccccc1)C(=O)N[C@H](Cc1ccc2ccccc2c1)C(N)=O [CAS_150155-61-6] (H-[dF]FY[dW]KVF[d2Nal]-NH2) | 12.1 | 177 | 132 | 234
6 | CC[C@@H]1NC(=O)[C@H](CCCCN)NC(=O)[C@@H](Cc2c[nH]c3ccccc23)NC(=O)[C@H](Cc2ccc(O)cc2)NC(=O)[C@@H](NC(=O)[C@H](N)Cc2ccccc2)CSSC[C@@H](C(=O)N[C@H](C(N)=O)[C@@H](C)O)NC1=O [D-Phe-L-Cys(1)-L-Tyr-D-Trp-L-Lys-L-Abu-L-Cys(1)-L-Thr-NH2] |  | 89 |  | 
